Patent US20130266668A1, “USE OF HEMOGLOBIN EFFECTORS TO INCREASE THE BIOAVAILABILITY OF THERAPEUTIC GASES” (VIRGINIA COMMONWEALTH UNIVERSITY, priority 2010, published 2013)
“And” between values parts separate entries of the source, which are not always exact repeats. Equal values may be shown once. Each block holds one compound with its values, some of them ahead of it.

Assays:
[1] = molecular target: T1, COHb in swine whole blood (hct of 30%) (Sus scrofa, UniProt P01965+P02067); test: Effect of RSR-13 on COHb levels of swine blood; assay type: biochemical; conditions: 2 mM RSR-13, after 30 minutes
T1 construct: from tissue; host or cells: swine whole blood (hct 30%, 20% or 15%)
T1 sequence (P01965 whole entry): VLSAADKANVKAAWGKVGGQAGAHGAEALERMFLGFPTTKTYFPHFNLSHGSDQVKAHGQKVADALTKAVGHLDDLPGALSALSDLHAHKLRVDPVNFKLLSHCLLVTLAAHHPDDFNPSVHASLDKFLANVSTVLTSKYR
T1 sequence (P02067 2-147 limits assumed): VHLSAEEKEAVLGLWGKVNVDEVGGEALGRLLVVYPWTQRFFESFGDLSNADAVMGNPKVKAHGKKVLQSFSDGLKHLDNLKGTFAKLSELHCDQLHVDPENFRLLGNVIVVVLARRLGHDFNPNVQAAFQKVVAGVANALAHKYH
Procedure: (§1) To determine whether RSR-13 will reduce COHb levels in swine blood or HBOC-1, we incubated HBOC-1 (13.4 g/dL) that has been exposed to CO to form ˜51% COHb, and swine whole blood (hct of 30%) that has been exposed to CO to form ˜52 or 10% COHb concentrations with 2 mM RSR-13. RSR-13 was able to reduce the amount of COHb by about 16% in the swine blood in the experiment starting with either 10% or 52% COHb level, and about 14% in the HBOC-1.

[2] = molecular target: T2, NO derivative of cell free human Hb (NOhHb) (Homo sapiens, UniProt P68871+P69905); test: Effect of RSR-13 on Soret absorbance of NO derivative of cell free human Hb; assay type: biochemical
T2 construct: Human hemoglobin (hHb) or swine Hb (swHb) was purified from discarded blood samples; from tissue; host or cells: purified in house from discarded human blood samples
T2 sequence (P69905 2-142 limits assumed): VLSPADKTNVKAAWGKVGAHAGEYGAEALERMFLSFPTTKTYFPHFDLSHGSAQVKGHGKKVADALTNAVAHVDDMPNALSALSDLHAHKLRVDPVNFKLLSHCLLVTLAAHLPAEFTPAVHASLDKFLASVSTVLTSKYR
T2 sequence (P68871 2-147 limits assumed): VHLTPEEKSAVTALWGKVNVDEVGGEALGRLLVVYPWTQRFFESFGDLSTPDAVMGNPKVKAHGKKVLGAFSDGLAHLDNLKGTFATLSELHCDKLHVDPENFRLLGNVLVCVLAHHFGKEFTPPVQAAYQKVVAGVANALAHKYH
Procedure: (§2) Effect of RSR-13 on the absorption spectra in the soret region of the nitrosylated derivatives of cell free Hb from human and swine, and HBOC-1 were recorded at 37° C. using HP Agilant 8453 Spectrophotometer using 1 cm path length cuvette. Solid Na dithionite (2 mg/mL) was added to the Hb to make the fully deoxygenated Hb, followed by addition of solid diethylamine NONOate (1.3 mg/mL) to make the NOhHb or NOswHb, or NOHBOC-1 derivatives. RSR-13 (20 uM-800 uM) were added to 65 ug of the NO derivatives and the spectrum monitored in the soret region at 417 nm.

HBOC-1 (13.4 g/dL) = molecular target: T3, HBOC-1 (13.4 g/dL) (Bos taurus, UniProt P01966+P02070); test: Effect of RSR-13 on oxygen affinity of HBOC-1 (multiple-point tonometer); assay type: biochemical, bovine
T3 construct: is a highly purified bovine Hb that is crosslinked with gluteraldehyde; purchased BioPure Inc
T3 sequence (P01966 2-142 limits assumed): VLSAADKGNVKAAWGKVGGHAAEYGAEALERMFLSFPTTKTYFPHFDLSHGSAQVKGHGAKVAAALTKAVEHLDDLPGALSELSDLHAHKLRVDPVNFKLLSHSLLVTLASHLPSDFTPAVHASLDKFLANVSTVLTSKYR
T3 sequence (P02070 whole entry): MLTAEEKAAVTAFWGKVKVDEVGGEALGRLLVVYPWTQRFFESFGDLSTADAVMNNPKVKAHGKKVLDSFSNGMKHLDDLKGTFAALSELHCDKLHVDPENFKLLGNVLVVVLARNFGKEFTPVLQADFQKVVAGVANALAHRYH
Procedure: (§3) The effect of RSR-13 on the oxygen affinity of erythswHb and erythhHb, and HBOC-1 was determined using multiple-point tonometer. RSR-13 (1, 2 or 5 mM) was incubated with blood from swine or human (hct ˜30%) or HBOC-1 (13.4 g/dL) for 30 minutes. The Hb-compound mixture was then further incubated in IL 237 tonometers (Instrumentation Laboratories, Inc. Lexington, Mass.) for 5 minutes at 37° C. to equilibrate at oxygen tensions of 6 mmHg or 20 mmHg or 40 mmHg or 60 mmHg. Following, the sample is aspirated into an IL 1420 Automated Blood Gas Analyzer and an IL 682 Co-oximeter (Instrumentation Laboratories) or ABL 700 Blood Gas Analyzer (Radiometer, Westlake, Ohio) to determine the pH, pCO2, pO2, and Hb oxygen saturation values (SO2). The measured values of pO2 and SO2 were then subjected to a non-linear regression analysis using the program Scientist to estimate the P50 and Hill coefficient values (cooperativity of oxygen binding; n50).

[3] = molecular target: T4, NO derivative of cell free swine Hb (NOswHb) (Sus scrofa, UniProt P01965+P02067); test: Effect of RSR-13 on Soret absorbance of NO derivative of cell free swine Hb; assay type: biochemical
T4 construct: Human hemoglobin (hHb) or swine Hb (swHb) was purified from discarded blood samples; from tissue; host or cells: purified in house from discarded swine blood samples
T4 sequence (P01965 whole entry): as the sequence (P01965 whole entry) above
T4 sequence (P02067 2-147 limits assumed): as the sequence (P02067 2-147 limits assumed) above
Procedure: as §2

[4] = molecular target: T5, COHb in HBOC-1 (13.4 g/dL) (Bos taurus, UniProt P01966+P02070); test: Effect of RSR-13 on COHb levels of HBOC-1; assay type: biochemical, bovine; conditions: HBOC-1 13.4 g/dL exposed to CO to ~51% COHb (control 51.1), 2 mM RSR-13, after 30 minutes
T5 construct: is a highly purified bovine Hb that is crosslinked with gluteraldehyde; purchased BioPure Inc
T5 sequence (P01966 2-142 limits assumed): as the sequence (P01966 2-142 limits assumed) above
T5 sequence (P02070 whole entry): as the sequence (P02070 whole entry) above
Procedure: as §1

[5] = molecular target: T6, human whole blood or erythrocyte (erythhHb) (Homo sapiens, UniProt P68871+P69905); test: Effect of RSR-13 on oxygen affinity of human whole blood (multiple-point tonometer); assay type: biochemical; conditions: human blood hct 30%
T6 construct: from tissue; host or cells: human whole blood (hct ~30%)
Procedure: as §3

whole blood = molecular target: T7, whole blood (Homo sapiens, UniProt P68871+P69905); conditions: Phase I studies, doses of 75-100 mg/kg; cited from earlier work
T7 construct: host or cells: whole blood of dosed subjects
T7 sequence (P69905 2-142 limits assumed): as the sequence (P69905 2-142 limits assumed) above
T7 sequence (P68871 2-147 limits assumed): as the sequence (P68871 2-147 limits assumed) above

[6] = molecular target: T8, erythswHb/HBOC-1 solution mixture (UniProt P01965+P01966+P02067+P02070); test: Effect of RSR-13 on oxygen affinity of erythswHb/HBOC-1 solution mixtures; assay type: biochemical, swine; conditions: 2 mM RSR-13
T8 construct: composed of either 15% or 20% hct whole blood in 13.4 g/dL of HBOC-1; is a highly purified bovine Hb that is crosslinked with gluteraldehyde; tissue BioPure Inc (HBOC-1 part); host or cells: swine whole blood (hct 15 or 20%) mixed with HBOC-1 (13.4 g/dL) at 75:25 or 50:50 by volume
T8 sequence (P01965 whole entry): as the sequence (P01965 whole entry) above
T8 sequence (P02067 whole entry): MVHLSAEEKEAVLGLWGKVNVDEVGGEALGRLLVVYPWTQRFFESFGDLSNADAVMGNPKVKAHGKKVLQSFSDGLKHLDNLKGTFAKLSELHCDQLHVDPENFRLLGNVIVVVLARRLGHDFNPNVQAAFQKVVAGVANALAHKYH
T8 sequence (P01966 2-142 limits assumed): as the sequence (P01966 2-142 limits assumed) above
T8 sequence (P02070 whole entry): as the sequence (P02070 whole entry) above
Procedure: as §3
RSR-13 (2 mM) was incubated with erythswHb (hct of 15 or 20%)/HBOC-1 (13.4 g/dL) solution mixture in a volume ratio of 75:25 and 50:50 for 30 minutes. The Hb-compound mixture was then analyzed for their P50 and Hill coefficient values as described above.

[7] = molecular target: T9, NO derivative of HBOC-1 (NOHBOC-1) (Bos taurus, UniProt P01966+P02070); test: Effect of RSR-13 on Soret absorbance of NO derivative of HBOC-1; assay type: biochemical, bovine
T9 construct: is a highly purified bovine Hb that is crosslinked with gluteraldehyde; purchased BioPure Inc
T9 sequence (P01966 2-142 limits assumed): as the sequence (P01966 2-142 limits assumed) above
T9 sequence (P02070 whole entry): as the sequence (P02070 whole entry) above
Procedure: as §2

[8] = molecular target: T10, swine whole blood or erythrocyte (erythswHb) (Sus scrofa, UniProt P01965+P02067); test: Effect of RSR-13 on oxygen affinity of swine whole blood (multiple-point tonometer); assay type: biochemical
T10 construct: from tissue; host or cells: swine whole blood (hct 30%, 20% or 15%)
Procedure: as §3, with “RSR-13 (1, 2 or 5 mM) was incubated with blood from swine or human (hct ˜30%) or HBOC-1 (13.4 g/dL) for 30 minutes.” left out

[9] = Oxygen affinity of HBOC-1 itself, without RSR-13 (multiple-point tonometer); assay type: biochemical, bovine; conditions: HBOC-1 13.4 g/dL alone, 0 RSR-13
Procedure: as §3

[10] = Blood/HBOC (50:50), swine blood hct 15%
[11] = Blood/HBOC (50:50), swine blood hct 20%
[12] = Blood/HBOC (75:25), swine blood hct 15%
[13] = Blood/HBOC (75:25), swine blood hct 20%
[14] = swine blood (100%) hct 15%, 2 mM RSR-13
[15] = swine blood (100%) hct 20%, 2 mM RSR-13
[16] = swine blood hct 30%, 1 mM RSR-13
[17] = swine blood hct 30%, 2 mM RSR-13
[18] = swine blood hct 30%, 5 mM RSR-13

COHb levels ([1]; swine blood hct 30% exposed to CO to ~10% COHb (control 10.2)): 8.5 ± 0.3%
COHb levels ([1]; swine blood hct 30% exposed to CO to ~52% COHb (control 52.4)): 44.2 ± 1.0%
Percentage (%) decrease in absorbance intensity at 417 nm ([2]; 20 uM RSR-13): 3.2 ± 0.4%
Percentage (%) decrease in absorbance intensity at 417 nm ([2]; 100 uM RSR-13): 8.9 ± 0.3%
Percentage (%) decrease in absorbance intensity at 417 nm ([2]; 200 uM RSR-13): 13.2 ± 0.3%
Percentage (%) decrease in absorbance intensity at 417 nm ([2]; 300 uM RSR-13): 16.5 ± 0.4%
P50 (HBOC-1 (13.4 g/dL); 2 mM RSR-13): 73.6 ± 3.0 mmHg
n50 (HBOC-1 (13.4 g/dL); 2 mM RSR-13): 1.1 ± 0.3
ΔP50 (HBOC-1 (13.4 g/dL); 2 mM RSR-13): 15.1 mmHg
P50 (HBOC-1 (13.4 g/dL); 5 mM RSR-13): 83.5 ± 3.4 mmHg
n50 (HBOC-1 (13.4 g/dL); 5 mM RSR-13): 1.1 ± 0.3
ΔP50 (HBOC-1 (13.4 g/dL); 5 mM RSR-13): 25 mmHg and 25.0 mmHg
Percentage (%) decrease in absorbance intensity at 417 nm ([3]; 20 uM RSR-13): 3.3 ± 0.4%
Percentage (%) decrease in absorbance intensity at 417 nm ([3]; 100 uM RSR-13): 7.9 ± 0.4%
Percentage (%) decrease in absorbance intensity at 417 nm ([3]; 200 uM RSR-13): 14.9 ± 0.3%
Percentage (%) decrease in absorbance intensity at 417 nm ([3]; 300 uM RSR-13): 17.1 ± 0.5%
COHb levels [4]: 44.1 ± 0.7%
P50 ([5]; 1 mM RSR-13): 35.1 ± 2.2 mmHg
n50 ([5]; 1 mM RSR-13): 2.4 ± 0.2
ΔP50 ([5]; 1 mM RSR-13): 3.3 mmHg
P50 ([5]; 2 mM RSR-13): 42.0 ± 1.7 mmHg
n50 ([5]; 2 mM RSR-13): 2.0 ± 0.3
ΔP50 ([5]; 2 mM RSR-13): 10.2 mmHg
P50 ([5]; 5 mM RSR-13): 78.0 ± 1.2 mmHg
n50 ([5]; 5 mM RSR-13): 1.8 ± 0.1
ΔP50 ([5]; 5 mM RSR-13): 46.2 mmHg
P50 [6, 10]: 74.0 ± 2.1 mmHg
n50 [6, 10]: 1.5 ± 0.1
ΔP50 [6, 10]: 21.2 mmHg
P50 [6, 11]: 68.0 ± 4.2 mmHg
n50 [6, 11]: 1.8 ± 0.3
ΔP50 [6, 11]: 20.5 mmHg
P50 [6, 12]: 75.1 ± 5.6 mmHg
n50 [6, 12]: 1.7 ± 0.1
ΔP50 [6, 12]: 27.6 mmHg
P50 [6, 13]: 61.5 ± 3.6 mmHg
n50 [6, 13]: 2.1 ± 0.1
ΔP50 [6, 13]: 18.1 mmHg
Percentage (%) decrease in absorbance intensity at 417 nm ([7]; 100 uM RSR-13): 4.7 ± 0.2%
Percentage (%) decrease in absorbance intensity at 417 nm ([7]; 200 uM RSR-13): 6.1 ± 0.3%
Percentage (%) decrease in absorbance intensity at 417 nm ([7]; 300 uM RSR-13): 7.8 ± 0.5%
Percentage (%) decrease in absorbance intensity at 417 nm ([7]; 800 uM RSR-13): 15.5 ± 0.5%
P50 [8, 14]: 62.3 ± 0.5 mmHg
n50 [8, 14]: 2.2 ± 0.2
ΔP50 [8, 14]: 25.0 mmHg
P50 [8, 15]: 51.3 ± 3.2 mmHg
n50 [8, 15]: 2.2 ± 0.1
ΔP50 [8, 15]: 16.8 mmHg
P50 [8, 16]: 34.5 ± 0.2 mmHg
n50 [8, 16]: 2.6 ± 0.3
ΔP50 [8, 16]: 3.9 mmHg
P50 [8, 17]: 41.5 ± 0.5 mmHg
n50 [8, 17]: 2.3 ± 0.0
ΔP50 [8, 17]: 11.3 mmHg
P50 [8, 18]: 72.1 ± 1.3 mmHg
n50 [8, 18]: 1.9 ± 0.1
ΔP50 [8, 18]: 41.5 mmHg
Compound: Cc1cc(C)cc(NC(=O)Cc2ccc(OC(C)(C)C(=O)O)cc2)c1 [RSR-13, 2-[4-[2-[(3,5-dimethylphenyl)amino]-2-oxoethyl]phenoxy]-2-methylpropanoic acid]
increase of the P50 of whole blood (whole blood): 10 Torr

Compound: HBOC-1: Oxyglobin® from BioPure Inc: highly purified bovine Hb that is crosslinked with gluteraldehyde
P50 [9]: 58.5 mmHg and 58.5 ± 6.9 mmHg
n50 [9]: 1.2 and 1.2 ± 0.3
